Laboratory results as given in the NIST ThermoML archive (doi:10.1021/je200457q).
Numbers after ± are expanded uncertainties.

Assays:
[1] = 298.15 K; 101.33 kPa; Liquid; Vibrating tube method
[2] = excess molar enthalpy (molar enthalpy of mixing); xn = mol fraction of the nth substance listed; details: 101 kPa, Liquid, Flow calorimetry

C=CC(C)(O)CCC=C(C)C (stereo not given) [3,7-dimethyl-1,6-octadien-3-ol]
Details	mass density [kg/m3]
[1]	857 ± 0.62

CC(C)O [propan-2-ol]
Details	mass density [kg/m3]
[1]	781.23 ± 0.15

CCCO [propan-1-ol]
Details	mass density [kg/m3]
[1]	799.56 ± 0.15

C=CC(C)(O)CCC=C(C)C (stereo not given) [3,7-dimethyl-1,6-octadien-3-ol] + CC(C)O
excess molar enthalpy [kcal/mol], [2]
Details	283.15 K	298.15 K	313.15 K	328.15 K
x1 = 0.024	-0.00789 ± 0.000478	-0.00741 ± 0.000478	-0.00574 ± 0.000478	-0.00191 ± 0.000239
x1 = 0.048	-0.011 ± 0.000478	-0.0117 ± 0.000478	-0.00908 ± 0.000478	-0.00239 ± 0.000239
x1 = 0.097	-0.0141 ± 0.000478	-0.0148 ± 0.000478	-0.0115 ± 0.000478	-0.000717 ± 0.000239
x1 = 0.195	-0.0174 ± 0.000478	-0.0174 ± 0.000478	-0.0108 ± 0.000478	0.00621 ± 0.000239
x1 = 0.292	-0.0186 ± 0.000717	-0.0172 ± 0.000478	-0.00837 ± 0.000239	0.0131 ± 0.000478
x1 = 0.392	-0.0196 ± 0.000717	-0.0163 ± 0.000478	-0.0055 ± 0.000239	0.0184 ± 0.000717
x1 = 0.49	-0.0196 ± 0.000717	-0.0134 ± 0.000478	-0.00167 ± 0.000239	0.0215 ± 0.000717
x1 = 0.592	-0.0174 ± 0.000478	-0.00884 ± 0.000478	0.00191 ± 0.000239	0.022 ± 0.000717
x1 = 0.693	-0.012 ± 0.000478	-0.00287 ± 0.000239	0.00478 ± 0.000239	0.0184 ± 0.000717
x1 = 0.796	-0.00454 ± 0.000239	0.00143 ± 0.000239	0.00454 ± 0.000239	0.0131 ± 0.000478
x1 = 0.894	0.000717 ± 0.000239	0.00215 ± 0.000239	0.00167 ± 0.000239	0.00574 ± 0.000239
x1 = 0.948	0.000478 ± 0.000239	0.000717 ± 0.000239	0.000717 ± 0.000239	0.00263 ± 0.000239

C=CC(C)(O)CCC=C(C)C (stereo not given) [3,7-dimethyl-1,6-octadien-3-ol] + CCCCO
excess molar enthalpy [kcal/mol], [2]
Details	283.15 K	298.15 K	313.15 K	328.15 K
x1 = 0.042	-0.00311 ± 0.000239	-0.00717 ± 0.000478	-0.00717 ± 0.000478	-0.00526 ± 0.000717
x1 = 0.085	-0.00502 ± 0.000239	-0.0143 ± 0.000478	-0.0158 ± 0.000717	-0.022 ± 0.000956
x1 = 0.174	-0.00526 ± 0.000239	-0.0227 ± 0.000717	-0.0349 ± 0.0012	-0.0526 ± 0.00167
x1 = 0.265	-0.00287 ± 0.000239	-0.0241 ± 0.000717	-0.0466 ± 0.00143	-0.0724 ± 0.00215
x1 = 0.359	-0.000239 ± 0.000239	-0.0217 ± 0.000717	-0.0514 ± 0.00143	-0.082 ± 0.00239
x1 = 0.457	0.00215 ± 0.000239	-0.0182 ± 0.000478	-0.0509 ± 0.00143	-0.0837 ± 0.00239
x1 = 0.559	0.00574 ± 0.000239	-0.0136 ± 0.000478	-0.0447 ± 0.00143	-0.0779 ± 0.00215
x1 = 0.661	0.00956 ± 0.000478	-0.00669 ± 0.000239	-0.0351 ± 0.000956	-0.0624 ± 0.00191
x1 = 0.771	0.0136 ± 0.000478	0.000717 ± 0.000239	-0.022 ± 0.000717	-0.044 ± 0.00143
x1 = 0.884	0.0141 ± 0.000478	0.00621 ± 0.000239	-0.00741 ± 0.000478	-0.021 ± 0.000717
x1 = 0.943	0.0105 ± 0.000478	0.00526 ± 0.000239	-0.00191 ± 0.000239	-0.00884 ± 0.000478

C=CC(C)(O)CCC=C(C)C (stereo not given) [3,7-dimethyl-1,6-octadien-3-ol] + CCO
excess molar enthalpy [kcal/mol], [2]
Details	283.15 K	298.15 K	313.15 K	328.15 K
x1 = 0.047	-0.0366 ± 0.00191	-0.0366 ± 0.00215	-0.0418 ± 0.00215	-0.0413 ± 0.00215
x1 = 0.094	-0.0741 ± 0.00263	-0.0805 ± 0.00287	-0.0839 ± 0.00287	-0.0798 ± 0.00263
x1 = 0.19	-0.143 ± 0.0043	-0.152 ± 0.00454	-0.157 ± 0.00454	-0.143 ± 0.00406
x1 = 0.29	-0.185 ± 0.00526	-0.198 ± 0.0055	-0.202 ± 0.00574	-0.18 ± 0.00502
x1 = 0.387	-0.191 ± 0.0055	-0.207 ± 0.00574	-0.212 ± 0.00598	-0.189 ± 0.00526
x1 = 0.481	-0.179 ± 0.00502	-0.19 ± 0.00526	-0.199 ± 0.00574	-0.177 ± 0.00502
x1 = 0.585	-0.152 ± 0.0043	-0.165 ± 0.00478	-0.17 ± 0.00478	-0.152 ± 0.0043
x1 = 0.695	-0.11 ± 0.00311	-0.121 ± 0.00359	-0.128 ± 0.00359	-0.114 ± 0.00335
x1 = 0.78	-0.0743 ± 0.00215	-0.0923 ± 0.00263	-0.101 ± 0.00287	-0.0875 ± 0.00263
x1 = 0.895	-0.0335 ± 0.0012	-0.0423 ± 0.00143	-0.0473 ± 0.00167	-0.0411 ± 0.00143
x1 = 0.946	-0.0165 ± 0.000956	-0.021 ± 0.000956	-0.0249 ± 0.0012	-0.0232 ± 0.000956

CCCCO [butan-1-ol]
Details	mass density [kg/m3]
[1]	805.71 ± 0.15

CCO [ethanol]
Details	mass density [kg/m3]
[1]	785.46 ± 0.15

C=CC(C)(O)CCC=C(C)C (stereo not given) [3,7-dimethyl-1,6-octadien-3-ol] + CCCO
excess molar enthalpy [kcal/mol], [2]
Details	283.15 K	298.15 K	313.15 K	328.15 K
x1 = 0.048	-0.0404 ± 0.00191	-0.0392 ± 0.00191	-0.0428 ± 0.00191	-0.0411 ± 0.00167
x1 = 0.096	-0.0772 ± 0.00263	-0.0786 ± 0.00263	-0.0786 ± 0.00263	-0.0698 ± 0.00215
x1 = 0.188	-0.13 ± 0.00382	-0.136 ± 0.00406	-0.134 ± 0.00382	-0.112 ± 0.00335
x1 = 0.29	-0.153 ± 0.0043	-0.167 ± 0.00478	-0.162 ± 0.00454	-0.131 ± 0.00382
x1 = 0.383	-0.154 ± 0.0043	-0.168 ± 0.00478	-0.161 ± 0.00454	-0.132 ± 0.00382
x1 = 0.491	-0.142 ± 0.00406	-0.148 ± 0.0043	-0.142 ± 0.00406	-0.119 ± 0.00335
x1 = 0.584	-0.121 ± 0.00335	-0.124 ± 0.00359	-0.123 ± 0.00359	-0.0997 ± 0.00287
x1 = 0.693	-0.0884 ± 0.00263	-0.0908 ± 0.00263	-0.0937 ± 0.00263	-0.0777 ± 0.00215
x1 = 0.794	-0.0588 ± 0.00191	-0.0614 ± 0.00191	-0.0686 ± 0.00215	-0.0574 ± 0.00167
x1 = 0.894	-0.027 ± 0.000956	-0.0311 ± 0.0012	-0.0356 ± 0.0012	-0.0304 ± 0.000956
x1 = 0.945	-0.0139 ± 0.0012	-0.0163 ± 0.000478	-0.0191 ± 0.000956	-0.0165 ± 0.000717
